Consider eleven molecules from ChEMBL document CHEMBL1152717, “Discovery of mu-opioid selective ligands derived from 1-aminotetralin scaffolds made via metal-catalyzed ring-opening reactions” (Bioorg Med Chem Lett, 2009).

Structures are written as SMILES. Where only a bound is given, the exact number is not on record here.

Assay [1] has as its target T1, Mu-type opioid receptor (Homo sapiens, UniProt P35372). The assay is described as follows: Displacement of [125I]FK33824 from human cloned mu opioid receptor. (In general: In a radioligand displacement assay an active substance lowers the binding of a labelled ligand.)
Assay [2] has as its target Delta-type opioid receptor (Homo sapiens, UniProt P41143). The assay is described as follows: Displacement of [125I]deltorphin 2 from human cloned delta opioid receptor.
In assay [3] the target is Kappa-type opioid receptor (Homo sapiens, UniProt P41145). The assay is described as follows: Displacement of [125I]U69593 from human cloned kappa opioid receptor.
Chain of Kappa-type opioid receptor (P41145 whole entry): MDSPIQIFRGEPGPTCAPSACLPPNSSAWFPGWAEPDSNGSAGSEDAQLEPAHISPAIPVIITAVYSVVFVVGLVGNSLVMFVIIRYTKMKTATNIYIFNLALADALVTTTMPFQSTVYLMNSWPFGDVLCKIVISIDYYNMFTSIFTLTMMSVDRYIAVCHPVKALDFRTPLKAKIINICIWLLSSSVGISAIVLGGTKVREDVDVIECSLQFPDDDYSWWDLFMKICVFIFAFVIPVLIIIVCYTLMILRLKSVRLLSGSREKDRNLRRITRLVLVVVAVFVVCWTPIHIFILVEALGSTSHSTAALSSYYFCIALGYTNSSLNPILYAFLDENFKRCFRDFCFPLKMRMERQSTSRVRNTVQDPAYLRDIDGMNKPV
Assay [4] has as its target T1, Mu-type opioid receptor. The settings on record: at 100 µM.
Description: Intrinsic activity at human cloned mu opioid receptor at 100 uM by [35S]GTPgammaS binding assay relative to DAMGO
In assay [5] the target is T1, Mu-type opioid receptor. As to the kind of experiment: Agonist activity at human cloned mu opioid receptor by [35S]GTPgammaS binding assay. The class given is functional. On the technique in general: Binding of GTPγS marks nucleotide exchange on a G protein.

T1 sequence (P35372 whole entry): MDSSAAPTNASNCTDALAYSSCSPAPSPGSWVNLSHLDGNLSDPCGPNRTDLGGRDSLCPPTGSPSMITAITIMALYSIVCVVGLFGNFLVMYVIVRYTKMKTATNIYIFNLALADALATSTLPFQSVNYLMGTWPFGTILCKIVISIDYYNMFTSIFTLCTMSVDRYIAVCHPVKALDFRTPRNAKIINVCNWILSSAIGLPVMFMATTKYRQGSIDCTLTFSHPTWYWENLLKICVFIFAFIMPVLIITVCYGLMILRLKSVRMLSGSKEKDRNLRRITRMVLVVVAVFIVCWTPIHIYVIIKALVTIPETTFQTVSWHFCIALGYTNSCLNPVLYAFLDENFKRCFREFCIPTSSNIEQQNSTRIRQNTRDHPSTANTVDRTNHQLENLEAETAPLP
Chain of Delta-type opioid receptor (P41143 whole entry): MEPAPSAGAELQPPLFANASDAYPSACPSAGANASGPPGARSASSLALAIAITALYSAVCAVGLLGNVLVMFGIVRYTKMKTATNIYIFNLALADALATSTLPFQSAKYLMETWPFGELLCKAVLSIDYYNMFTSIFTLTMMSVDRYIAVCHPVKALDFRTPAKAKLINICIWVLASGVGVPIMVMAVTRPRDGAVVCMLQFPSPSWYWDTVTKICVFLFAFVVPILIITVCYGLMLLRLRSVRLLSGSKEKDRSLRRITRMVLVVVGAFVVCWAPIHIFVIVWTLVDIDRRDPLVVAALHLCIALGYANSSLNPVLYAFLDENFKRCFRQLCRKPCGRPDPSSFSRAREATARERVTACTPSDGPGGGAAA

`COCCN(C(=O)c1sccc1Cl)[C@@H]1c2ccccc2C=C[C@H]1N1CCN(c2ccccc2)CC1`: the IC50 (usually the midpoint of a concentration-inhibition curve) on Mu-type opioid receptor [1] is 58 nM; in assay [2], 1240 nM; in assay [3], 1320 nM.
For the molecule `COCCN(C(=O)c1sccc1Cl)[C@H]1c2ccccc2C=C[C@@H]1N1CCN(c2ccccc2)CC1`, on Mu-type opioid receptor [1], the concentration for half-maximal inhibition (IC50) is 2800 nM.
Regarding `COCCN[C@@H]1c2ccccc2CC[C@H]1c1ccsc1`, the IC50 in assay [2] was found to be 3800 nM; in assay [3] it was 707 nM.
Turning to `C[C@@]12CCCCC[C@@H](Cc3ccc(O)cc31)[C@@H]2N`, on Mu-type opioid receptor [4], the Emax – broadly, the maximal effect, on the per cent scale that the assay sets – came out at 6%.
`COCCNC1c2ccccc2CCC1c1ccsc1` (racemic): the concentration for half-maximal inhibition (IC50) in assay [3] came out at 2210 nM.
`COCCN(C(=O)COCc1ccccc1)C1c2ccccc2C=CC1N1CCN(c2ccccc2)CC1` (racemic): the half-maximal effective concentration (EC50) (in general, the concentration needed to bring the measured effect to its halfway point) on Mu-type opioid receptor [5] is greater than 90000 nM. Moreover, the values for the half-maximal inhibitory concentration (IC50) (at Mu-type opioid receptor [1]; in assay [2]; in assay [3]) were 211 nM, 3890 nM and greater than 10000 nM, respectively. At Mu-type opioid receptor [4], this molecule showed an Emax of 10%.
On Mu-type opioid receptor [5], `COCCN(C(=O)Cc1cccc(OC)c1)C1c2ccccc2C=CC1N1CCN(c2ccccc2)CC1` (racemic) had an EC50 greater than 90000 nM. Moreover, the values for the IC50 (at Mu-type opioid receptor [1]; in assay [2]; in assay [3]) were 151 nM, 1470 nM and greater than 10000 nM, respectively. Also, the maximal effect (Emax) on Mu-type opioid receptor [4] was 10%.
On Mu-type opioid receptor [5], `COCCN(C(=O)Cc1ccc(Cl)cc1)C1c2ccccc2C=CC1N1CCN(c2ccccc2)CC1` (racemic) showed an EC50 greater than 90000 nM. Moreover, the IC50 at Mu-type opioid receptor [1] was determined as 181 nM; in assay [2] it was 1950 nM; in assay [3] it was 7990 nM. At Mu-type opioid receptor [4], the maximal effect (Emax) was 0%.
`COCCN(C(=O)c1sccc1Cl)C1c2ccccc2C=CC1N1CCN(c2ccccc2)CC1` (racemic) came in with a 50% effective concentration (EC50) on Mu-type opioid receptor [5] greater than 90000 nM. The IC50 was determined as 100 nM at Mu-type opioid receptor [1], 2290 nM in assay [2] and 7140 nM in assay [3]. For the same molecule, at Mu-type opioid receptor [4], the Emax is 0%.
`COCCN(C(=O)c1ccc(Cl)c(Cl)c1)C1c2ccccc2C=CC1N1CCN(c2ccccc2)CC1` (racemic): the half-maximal effective concentration (EC50) at Mu-type opioid receptor [5] was greater than 90000 nM. Besides, the half-inhibitory concentration (IC50) at Mu-type opioid receptor [1] is 443 nM; in assay [2], 3620 nM; in assay [3], greater than 10000 nM. At Mu-type opioid receptor [4], the Emax was determined as 60%.
For the molecule `COCCN(C(=O)c1cc(C)nn1C)C1c2ccccc2CCC1c1ccsc1` (racemic), the half-maximal inhibitory concentration (IC50) is 4860 nM at Mu-type opioid receptor [1], 1270 nM in assay [2] and greater than 10000 nM in assay [3].
